pIC50: −log10 of the molar value.

This assay addresses USP1, construct USP1 (I-785, GG670, 671AA)/UAF1 (I-677)-Flag (Homo sapiens (Human), UniProt O94782, G670A/G671A). As to the kind of experiment: Ubiquitin-Rhodamine 110 assay for USP1 activity, follow-up IC50 format. The class given is biochemical.

Sequence of USP1, construct USP1 (I-785, GG670, 671AA)/UAF1 (I-677)-Flag (O94782 whole entry G670A/G671A): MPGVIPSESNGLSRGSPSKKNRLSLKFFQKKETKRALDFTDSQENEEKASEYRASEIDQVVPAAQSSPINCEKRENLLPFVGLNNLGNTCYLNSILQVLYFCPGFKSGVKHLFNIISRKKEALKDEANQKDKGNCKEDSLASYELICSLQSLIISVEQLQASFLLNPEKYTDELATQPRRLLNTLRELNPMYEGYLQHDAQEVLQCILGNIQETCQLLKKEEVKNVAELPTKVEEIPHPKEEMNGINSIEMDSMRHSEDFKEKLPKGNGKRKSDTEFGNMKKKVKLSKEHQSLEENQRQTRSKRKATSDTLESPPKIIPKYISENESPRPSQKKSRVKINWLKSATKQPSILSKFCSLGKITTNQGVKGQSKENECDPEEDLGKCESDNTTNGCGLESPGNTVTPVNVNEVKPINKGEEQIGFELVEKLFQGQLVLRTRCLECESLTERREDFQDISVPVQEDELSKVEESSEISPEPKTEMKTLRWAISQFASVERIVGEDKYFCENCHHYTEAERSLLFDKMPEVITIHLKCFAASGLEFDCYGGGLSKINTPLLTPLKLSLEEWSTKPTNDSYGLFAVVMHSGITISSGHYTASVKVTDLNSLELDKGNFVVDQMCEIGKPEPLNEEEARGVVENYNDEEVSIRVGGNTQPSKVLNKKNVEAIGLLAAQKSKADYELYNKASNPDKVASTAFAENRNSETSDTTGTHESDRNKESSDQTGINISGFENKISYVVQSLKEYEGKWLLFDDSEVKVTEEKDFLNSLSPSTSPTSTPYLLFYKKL
Sequence of USP1, construct USP1 (I-785, GG670, 671AA)/UAF1 (I-677)-Flag (Q8TAF3 whole entry partner): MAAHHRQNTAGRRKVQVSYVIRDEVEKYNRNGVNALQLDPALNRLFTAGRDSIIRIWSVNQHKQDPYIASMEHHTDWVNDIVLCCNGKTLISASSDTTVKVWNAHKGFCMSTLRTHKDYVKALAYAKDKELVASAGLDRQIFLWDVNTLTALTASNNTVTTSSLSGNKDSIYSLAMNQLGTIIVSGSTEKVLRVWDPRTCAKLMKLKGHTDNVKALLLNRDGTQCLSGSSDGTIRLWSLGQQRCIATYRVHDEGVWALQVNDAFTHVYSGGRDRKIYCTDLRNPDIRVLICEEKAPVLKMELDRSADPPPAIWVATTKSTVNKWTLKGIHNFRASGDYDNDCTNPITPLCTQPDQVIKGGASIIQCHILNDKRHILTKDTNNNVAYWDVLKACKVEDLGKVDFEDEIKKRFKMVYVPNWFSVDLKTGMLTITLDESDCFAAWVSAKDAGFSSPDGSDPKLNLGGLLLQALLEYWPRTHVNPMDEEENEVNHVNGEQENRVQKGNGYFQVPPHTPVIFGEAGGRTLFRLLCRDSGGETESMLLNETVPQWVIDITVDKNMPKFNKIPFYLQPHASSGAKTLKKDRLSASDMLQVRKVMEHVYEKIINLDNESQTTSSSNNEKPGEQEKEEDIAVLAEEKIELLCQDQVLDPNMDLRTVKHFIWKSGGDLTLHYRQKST

As to “9-(4-(1H-pyrazol-1-yl)benzyl)-2-(2-cyclopropylphenyl)-7,9- [Compound I-94]”, the pIC50 (in general, the IC50 on a negative log10 scale, so that one unit is a factor of ten) was > 7.30.

The record behind these values is patent US11161848B2, “Purinones as ubiquitin-specific protease 1 inhibitors” (FORMA Therapeutics, Inc., priority 2015, dated 2021).
